Results: publication PMC10874388, “Cyclic peptides discriminate BCL-2 and its clinical mutants from BCL-XL by engaging a single-residue discrepancy” (Nature Communications, 2024)
Several values for one entry are separate records, joined by “and”; a condition that tells them apart may be missing. Identical values can stand only once. Starred links: 1 amine or outer side, 2 acyl side, 3 side chain; linkers in the order of their positions; H or OH if unused. Positions of bridges follow the written chain, without caps; N, C: chain ends. Residues, ends and D or L forms follow the SMILES beside them. X1 = O=C(C[*:2])NCCNC(=O)c1ccc(C2=N[C@H](C(=O)[*:1])CS2)cc1

Tests used:
Type in all cases: cell-based
Jurkat cells [1] = experiment: Mitochondrial membrane potential (JC-1), flow cytometry and fluorescence microscopy; conditions: for Q1(%) / Q1(%)/Q3(%) / Q3(%): Figure 6d, 4h, replicate values; for ΔΨm (ratio of red over green fluorescence, Q1/Q3): 4 h treatment, JC-1, flow cytometry, n = 3
Procedure: For the mitochondrial membrane potential (ΔΨm) analysis, the mitochondrial membrane potential assay kit with JC-1 dye (Beyotime, C2006) was used according to the manufacturer’s protocol. […] The value of ΔΨm was expressed as the ratio of red fluorescence intensity over green fluorescence intensity. After treated with JC-1, fluorescence intensity of Jurkat cells was tested by flow cytometry (BD FACSAria Fusion) and fluorescence microscopy (NIKON Ti-E), respectively. All experiments were performed in triplicate. Statistical analysis was performed using software GraphPad Prism 7.0.

MGC-803 cells = experiment: Cell viability assay (CellTiter-Glo), MGC-803; conditions: TAT control
Procedure: (§1) The cell lines Jurkat (TIB-152), El4 (TIB-39), Daudi (ccl-213), RS4:11 (crl-1873), A549 (ccl-185), HepG2 (hb-8065) and PANC-1 (crl-1469) were purchased from ATCC (American Type Culture Collection), and MGC-803 (C6582) was purchased from Beyotime (https://www.beyotime.com/product/C6582.htm). […] Daudi and RS4:11 cells were cultured in RPMI-1640 medium (HyClone, SH30809.01) and 10% FBS (Gibco, 10099-141), whereas HepG2, MGC-803 and PANC-1 cells were cultured in MDEM (HyClone, SH30243.01). Cells were maintained at 37 °C under a humidified, 5% (v/v) CO2-containing atmosphere.
(§2) Cell viability was measured using CellTiter-Glo® 2.0 Reagent (Promega, G9242). […] After different inhibitors were added into serum-free medium and cultured for 4 h (RS4:11 for 6 h), FBS were supplemented to 10% and then incubated totally for 24 h or 48 h. Finally, the IC50 values were calculated based on measurements using a microplate reader (Thermo, Varioskan LUX). Statistical analysis was performed using software GraphPad Prism 7.0.
(§3) Supplementary Figure 10 Functional mechanism of CPs. a. IC50 values of venetoclax against A549, MGC-803 and PANC-1 cells, measured after 48 h treatment by a CellTiter-Glo assay and calculated using Prism 7.0 by a nonlinear-fit method. Data are presented as mean ± s.d.; n= 6 biological replicates. b. […]
(§4) Glo assay. Each data point represents the mean ± s.d. for 6 biological replicates.
(§5) Supplementary Figure 11 IC50 values of different inhibitors against different cell lines. a-d. Viability of A549 (a), HepG2 (b), MGC-803 (c) and PANC-1 (d) cells treated with various concentrations of ABT-199 (venetoclax), and measured after 48 h by a CellTiter-Glo assay. e, f. Viability of Jurkat cells (e) and Daudi cells (f) treated with […]
(§6) after 48 h by a CellTiter-Glo assay. Each data point represents the mean ± s.d. for 6 biological replicates.
(§7) (1 picture or pasted object on this page, not shown here)

[2] = system: A549 cells overexpressing BCL-2 WT; experiment: Cell viability assay, A549 stably overexpressing BCL-2 WT; conditions: BCL2-WT A549, TAT control
Procedure: as §2
(§8) Lentivirus packaging vectors pMDLg/pRRE, pRSV-Rev, and pVSV-G were obtained from Prof. Han Jiahuai’s lab (Xiamen University). Lentiviruses were produced using 3rd-generation lentivirus packaging plasmids transiently transfected into HEK293T cells with the constructs of interest using 0.25 M CaCl2. Media was changed after 16 h, and supernatants containing infectious virus particles were harvested 24 h later. A second viral harvest was made following a further 24 h incubation with fresh media. Virus containing supernatant was filtered through a […], and stored at 4 °C or −80 °C until being used. Typically, A549 cells were seeded into 10 cm cell culture dishes at 4 ~ 8 × 10^5 cells/cm^2. An equivalent volume of virus containing culture medium was added along with polybrene (Sigma) to a final concentration of 10 µg/mL. Cells were incubated at 37 °C for 20 h, before they were washed and resuspended in fresh culture media. The expression level of BCL-2 was measured by qPCR and western blot methods.

[3] = system: A549 cells overexpressing BCL-2 G101V; experiment: Cell viability assay, A549 stably overexpressing BCL-2 G101V; conditions: BCL2/G101V A549, TAT control
Procedure: as §2, §8

PANC-1 cells = experiment: Cell viability assay (CellTiter-Glo), PANC-1; conditions: PNAC-1, TAT control
Procedure: as §1, §2, §3, §4, §5, §6, §7

A549 cells (control) = experiment: Cell viability assay (CellTiter-Glo), normal A549 (control); conditions: TAT control
Procedure: as §1, §2

Jurkat cells [4] = experiment: Apoptosis assay, Annexin V-FITC/PI staining and flow cytometry
Procedure: Jurkat cells were seeded to 6-well plates at a density of 4 ×10^5 cells per well. Cells were incubated in the presence of DMSO, venetoclax at 2.5 μM, cp1-TAT at 30 μM, cp2-TAT at 30 μM, or cp3-TAT at 20 μM in serum-free RPMI medium for 4 h. After being incubated totally for 24 h, cells were washed once with PBS and stained with 100 μL binding buffer containing 5 μL Annexin V-FITC and 10 μL PI for 15 min, followed by addition of 400 μL binding buffer to detect cell apoptosis with FCM (BD FACSAria Fusion). Statistical analysis was performed using software FlowJo V10 and GraphPad Prism 7.0.

RS4:11 cells = experiment: Cell viability assay (CellTiter-Glo), RS4:11; conditions: RS4:11, single wells
Procedure: as §1, §2

TAT (GSGSRKKRRQRRR)
Q1(%) (Jurkat cells [1]): 92.3% and 93.6% and 94.9% | Q1(%)/Q3(%) (Jurkat cells [1]): 22.1343 and 27.3684 and 32.6117 | Q3(%) (Jurkat cells [1]): 4.17% and 3.42% and 2.91% | ΔΨm (ratio of red over green fluorescence, Q1/Q3) (Jurkat cells [1]; Jurkat): 27.37 | average (raw viability reading) (MGC-803 cells): 627500 | inhibition rate (MGC-803 cells; fraction, replicates): 0.09219 and 0.04796 and 0.06436 and 0.05774 and 0.0275 and 0.04676 | raw viability reading (MGC-803 cells; replicates): 622000 and 626400 and 646500 and 633700 and 603500 and 632900 | luminescence reading (raw, replicate wells) [2]: 525300 and 568300 and 525100 and 556600 and 515500 and 559500 | luminescence reading, everage ([2]; mean of 6 wells): 541717 | luminescence reading (raw, replicate wells) [3]: 540600 and 529300 and 534000 and 526600 and 523000 and 507100 | luminescence reading, everage ([3]; mean of 6 wells): 526767 | average (raw viability reading) (PANC-1 cells): 639133 | inhibition rate (PANC-1 cells; fraction, replicates): 0.2393 and 0.182 and 0.1596 and 0.1507 and 0.1102 and 0.1321 | raw viability reading (PANC-1 cells; replicates): 580400 and 624100 and 641200 and 648000 and 678900 and 662200 | average (raw viability reading) (A549 cells (control); A549): 422183 | inhibition rate (A549 cells (control); A549, fraction, replicates): 0.1678 and 0.2197 and 0.2282 and 0.2003 and 0.1961 and 0.2135 | raw viability reading (A549 cells (control); A549, replicates): 409500 and 424300 and 426500 and 417300 and 441500 and 414000 | luminescence reading (raw, replicate wells) (A549 cells (control); control A549): 640800 and 544000 and 632800 and 539700 and 559000 and 590400 | luminescence reading, everage (A549 cells (control); control A549, mean of 6 wells): 584450

CC[C@H](C)[C@@H]1NC(=O)[C@@H]2CCCN2C(=O)[C@@H]2CSC(=N2)c2ccc(cc2)C(=O)NCCNC(=O)CSC[C@@H](C(=O)NCC(=O)N[C@@H](CO)C(=O)NCC(=O)N[C@@H](CO)C(=O)N[C@@H](CCCNC(=N)N)C(=O)N[C@@H](CCCCN)C(=O)N[C@@H](CCCCN)C(=O)N[C@@H](CCCNC(=N)N)C(=O)N[C@@H](CCCNC(=N)N)C(=O)N[C@@H](CCC(N)=O)C(=O)N[C@@H](CCCNC(=N)N)C(=O)N[C@@H](CCCNC(=N)N)C(=O)N[C@@H](CCCNC(=N)N)C(N)=O)NC(=O)[C@H](Cc2ccccc2)NC(=O)[C@H](CCC(=O)O)NC(=O)[C@H](CC(=O)O)NC(=O)[C@H](Cc2c[nH]c3ccccc23)NC(=O)[C@H](CCC(=O)O)NC(=O)[C@H](Cc2ccc(O)cc2)NC(=O)[C@H](CCCNC(=N)N)NC1=O [cp2-TAT] (PIRYEWDEFCGSGSRKKRRQRRR-NH2; linker N-10 via X1; C-terminus assumed)
cell apoptosis(%) (Jurkat cells [4]; Figure 6b, replicate values): 18.83% and 24.52% | Proportion of apoptotic cells (Jurkat cells [4]; Jurkat, 24 h, 30 μM): 18.83% | Q1(%) (Jurkat cells [1]): 90.3% and 89.6% and 90% | Q1(%)/Q3(%) (Jurkat cells [1]): 12.1534 and 10.7049 and 11.4358 | Q3(%) (Jurkat cells [1]): 7.43% and 8.37% and 7.87% | ΔΨm (ratio of red over green fluorescence, Q1/Q3) (Jurkat cells [1]; Jurkat): 11.43 | Relative ΔΨm by JC-1 fluorescence staining (microscopy) (Jurkat cells [1]; Jurkat, 24 h treatment (Supplementary Fig. 13)): slightly decreased | raw luminescence reading (RS4:11 cells; 0.0488281 uM): 377400 and 399400 and 472900 and 398600 and 396500 and 376600 | inhibition rate (RS4:11 cells; 0.0488281 uM, 0.0488281 µM): 9% | raw luminescence reading (RS4:11 cells; 0.0976562 uM): 367900 and 411600 and 442500 and 406100 and 405700 and 384000 | raw luminescence reading (RS4:11 cells; 0.195312 uM): 397400 and 403000 and 448800 and 404500 and 392400 and 382800 | raw luminescence reading (RS4:11 cells; 0.390625 uM): 444700 and 450800 and 451700 and 438000 and 424700 and 412100 | inhibition rate (RS4:11 cells; 0.390625 uM, 0.390625 µM): -7.55% and -9% and -6% and -2.71% and 0.339% | raw luminescence reading (RS4:11 cells; 0.78125 uM): 472600 and 478400 and 471500 and 453400 and 442900 and 434600 | inhibition rate (RS4:11 cells; 0.78125 uM, 0.78125 µM): -14% | raw luminescence reading (RS4:11 cells; 1.5625 uM): 448100 and 455300 and 501800 and 445000 and 424900 and 404900 | raw luminescence reading (RS4:11 cells; 3.125 uM): 365800 and 401400 and 456400 and 498100 and 396600 and 403200 | raw luminescence reading (RS4:11 cells; 6.25 uM): 354100 and 405500 and 450900 and 485900 and 401500 and 412400 | raw luminescence reading (RS4:11 cells; 12.5 uM): 349800 and 390500 and 462000 and 475300 and 407800 and 417800 | raw luminescence reading (RS4:11 cells; 25 uM): 354900 and 371900 and 417300 and 420500 and 396000 and 400300 | raw luminescence reading (RS4:11 cells; 50 uM): 273500 and 288400 and 308900 and 317300 and 306600 and 319600 | inhibition rate (RS4:11 cells; 50 uM, 50 µM): 34% and 30% and 25% and 23% and 26% | raw luminescence reading (RS4:11 cells; 100 uM): 86770 and 92180 and 107300 and 109400 and 97150 and 101700 | inhibition rate (RS4:11 cells; 100 uM, 100 µM): 79% and 78% and 74% and 77% and 75%
